Data as given in PubChem BioAssay (NCI).
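These data come from cells grown in 96-well plates and exposed to compound for 48 hours at five concentrations. TGI: total growth inhibition.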

System: 786-0 renal
Experiment: inhibition of tumour cell growth, NCI panel, 48 h

| Compound | TGI |
| --- | --- |
| O=S1C(=c2ccc(=C3Sc4ccccc4S3)cc2)Sc2ccccc21 (stereo not given) | 30.8 µM |
| N#CC(C(=O)CCC(=O)Nc1ccc(Cl)c(Cl)c1)c1ccccc1 (stereo not given) | > 100 µM |
| O=c1c2cccnc2ncn1CCN1CCCCC1 | > 100 µM |
| O=C(Nc1c(O)[nH]c(=S)[nH]c1=O)c1ccccc1 | > 100 µM |
| COc1ccc(C2c3cc4c(cc3OC3(OC)COC(=O)C23)OCO4)c(OC)c1 (stereo not given) | > 61.3 µM |
| COc1cc2c(cc1O)[C@H](C)C(c1ccc(OC)c(OC)c1)O2 (stereo not given in full) | 23.8 µM |
| CC1=C/C(=N\NC(N)=S)C(C(O)(C(F)(F)F)C(F)(F)F)C(C)(C)C1 (stereo not given) | > 10 µM |

System: A498 renal
Experiment: inhibition of tumour cell growth, NCI panel, 48 h

| Compound | TGI |
| --- | --- |
| O=S1C(=c2ccc(=C3Sc4ccccc4S3)cc2)Sc2ccccc21 (stereo not given) | 30.2 µM |
| N#CC(C(=O)CCC(=O)Nc1ccc(Cl)c(Cl)c1)c1ccccc1 (stereo not given) | > 100 µM |
| O=C(Nc1c(O)[nH]c(=S)[nH]c1=O)c1ccccc1 | > 100 µM |
| COc1ccc(C2c3cc4c(cc3OC3(OC)COC(=O)C23)OCO4)c(OC)c1 (stereo not given) | > 92.9 µM |
| COc1cc2c(cc1O)[C@H](C)C(c1ccc(OC)c(OC)c1)O2 (stereo not given in full) | > 100 µM |
| CC1=C/C(=N\NC(N)=S)C(C(O)(C(F)(F)F)C(F)(F)F)C(C)(C)C1 (stereo not given) | > 10 µM |

System: A549 NSCLC
Experiment: inhibition of tumour cell growth, NCI panel, 48 h

| Compound | TGI |
| --- | --- |
| O=S1C(=c2ccc(=C3Sc4ccccc4S3)cc2)Sc2ccccc21 (stereo not given) | 35.5 µM |
| N#CC(C(=O)CCC(=O)Nc1ccc(Cl)c(Cl)c1)c1ccccc1 (stereo not given) | > 100 µM |
| O=c1c2cccnc2ncn1CCN1CCCCC1 | > 100 µM |
| O=C(Nc1c(O)[nH]c(=S)[nH]c1=O)c1ccccc1 | > 100 µM |
| COc1ccc(C2c3cc4c(cc3OC3(OC)COC(=O)C23)OCO4)c(OC)c1 (stereo not given) | > 100 µM |
| COc1cc2c(cc1O)[C@H](C)C(c1ccc(OC)c(OC)c1)O2 (stereo not given in full) | > 100 µM |
| CC1=C/C(=N\NC(N)=S)C(C(O)(C(F)(F)F)C(F)(F)F)C(C)(C)C1 (stereo not given) | > 10 µM |

System: ACHN renal
Experiment: inhibition of tumour cell growth, NCI panel, 48 h

| Compound | TGI |
| --- | --- |
| O=S1C(=c2ccc(=C3Sc4ccccc4S3)cc2)Sc2ccccc21 (stereo not given) | 37.6 µM |
| N#CC(C(=O)CCC(=O)Nc1ccc(Cl)c(Cl)c1)c1ccccc1 (stereo not given) | > 100 µM |
| O=c1c2cccnc2ncn1CCN1CCCCC1 | > 100 µM |
| O=C(Nc1c(O)[nH]c(=S)[nH]c1=O)c1ccccc1 | > 100 µM |
| COc1ccc(C2c3cc4c(cc3OC3(OC)COC(=O)C23)OCO4)c(OC)c1 (stereo not given) | > 100 µM |
| COc1cc2c(cc1O)[C@H](C)C(c1ccc(OC)c(OC)c1)O2 (stereo not given in full) | 22.4 µM |
| CC1=C/C(=N\NC(N)=S)C(C(O)(C(F)(F)F)C(F)(F)F)C(C)(C)C1 (stereo not given) | > 10 µM |

System: BT-549 breast
Experiment: inhibition of tumour cell growth, NCI panel, 48 h

| Compound | TGI |
| --- | --- |
| COc1ccc(C2c3cc4c(cc3OC3(OC)COC(=O)C23)OCO4)c(OC)c1 (stereo not given) | > 100 µM |
| CC1=C/C(=N\NC(N)=S)C(C(O)(C(F)(F)F)C(F)(F)F)C(C)(C)C1 (stereo not given) | > 10 µM |

System: CAKI-1 renal
Experiment: inhibition of tumour cell growth, NCI panel, 48 h

| Compound | TGI |
| --- | --- |
| O=S1C(=c2ccc(=C3Sc4ccccc4S3)cc2)Sc2ccccc21 (stereo not given) | > 91.1 µM |
| N#CC(C(=O)CCC(=O)Nc1ccc(Cl)c(Cl)c1)c1ccccc1 (stereo not given) | > 100 µM |
| O=c1c2cccnc2ncn1CCN1CCCCC1 | > 100 µM |
| O=C(Nc1c(O)[nH]c(=S)[nH]c1=O)c1ccccc1 | > 100 µM |
| COc1ccc(C2c3cc4c(cc3OC3(OC)COC(=O)C23)OCO4)c(OC)c1 (stereo not given) | > 100 µM |
| COc1cc2c(cc1O)[C@H](C)C(c1ccc(OC)c(OC)c1)O2 (stereo not given in full) | 15.9 µM |
| CC1=C/C(=N\NC(N)=S)C(C(O)(C(F)(F)F)C(F)(F)F)C(C)(C)C1 (stereo not given) | > 10 µM |

System: CCRF-CEM leukemia
Experiment: inhibition of tumour cell growth, NCI panel, 48 h

| Compound | TGI |
| --- | --- |
| O=S1C(=c2ccc(=C3Sc4ccccc4S3)cc2)Sc2ccccc21 (stereo not given) | > 100 µM |
| O=c1c2cccnc2ncn1CCN1CCCCC1 | > 100 µM |
| O=C(Nc1c(O)[nH]c(=S)[nH]c1=O)c1ccccc1 | > 100 µM |
| COc1ccc(C2c3cc4c(cc3OC3(OC)COC(=O)C23)OCO4)c(OC)c1 (stereo not given) | > 46.8 µM |
| COc1cc2c(cc1O)[C@H](C)C(c1ccc(OC)c(OC)c1)O2 (stereo not given in full) | 25.6 µM |
| CC1=C/C(=N\NC(N)=S)C(C(O)(C(F)(F)F)C(F)(F)F)C(C)(C)C1 (stereo not given) | > 10 µM |

System: COLO 205 colon
Experiment: inhibition of tumour cell growth, NCI panel, 48 h

| Compound | TGI |
| --- | --- |
| O=S1C(=c2ccc(=C3Sc4ccccc4S3)cc2)Sc2ccccc21 (stereo not given) | > 100 µM |
| O=c1c2cccnc2ncn1CCN1CCCCC1 | > 100 µM |
| O=C(Nc1c(O)[nH]c(=S)[nH]c1=O)c1ccccc1 | > 100 µM |
| COc1ccc(C2c3cc4c(cc3OC3(OC)COC(=O)C23)OCO4)c(OC)c1 (stereo not given) | 51.7 µM |
| COc1cc2c(cc1O)[C@H](C)C(c1ccc(OC)c(OC)c1)O2 (stereo not given in full) | 49.2 µM |
| CC1=C/C(=N\NC(N)=S)C(C(O)(C(F)(F)F)C(F)(F)F)C(C)(C)C1 (stereo not given) | > 10 µM |

System: DLD-1 colon
Experiment: inhibition of tumour cell growth, NCI panel, 48 h

| Compound | TGI |
| --- | --- |
| O=S1C(=c2ccc(=C3Sc4ccccc4S3)cc2)Sc2ccccc21 (stereo not given) | > 93.3 µM |
| N#CC(C(=O)CCC(=O)Nc1ccc(Cl)c(Cl)c1)c1ccccc1 (stereo not given) | > 100 µM |
| O=c1c2cccnc2ncn1CCN1CCCCC1 | > 100 µM |
| O=C(Nc1c(O)[nH]c(=S)[nH]c1=O)c1ccccc1 | > 100 µM |
| COc1cc2c(cc1O)[C@H](C)C(c1ccc(OC)c(OC)c1)O2 (stereo not given in full) | 21.3 µM |

System: DMS 114 small cell lung
Experiment: inhibition of tumour cell growth, NCI panel, 48 h

| Compound | TGI |
| --- | --- |
| O=S1C(=c2ccc(=C3Sc4ccccc4S3)cc2)Sc2ccccc21 (stereo not given) | > 56.4 µM |
| N#CC(C(=O)CCC(=O)Nc1ccc(Cl)c(Cl)c1)c1ccccc1 (stereo not given) | > 100 µM |
| O=c1c2cccnc2ncn1CCN1CCCCC1 | > 100 µM |
| O=C(Nc1c(O)[nH]c(=S)[nH]c1=O)c1ccccc1 | > 100 µM |
| COc1cc2c(cc1O)[C@H](C)C(c1ccc(OC)c(OC)c1)O2 (stereo not given in full) | 13.8 µM |

System: DMS 273 small cell lung
Experiment: inhibition of tumour cell growth, NCI panel, 48 h

| Compound | TGI |
| --- | --- |
| O=S1C(=c2ccc(=C3Sc4ccccc4S3)cc2)Sc2ccccc21 (stereo not given) | 37.1 µM |
| N#CC(C(=O)CCC(=O)Nc1ccc(Cl)c(Cl)c1)c1ccccc1 (stereo not given) | > 100 µM |
| O=c1c2cccnc2ncn1CCN1CCCCC1 | > 100 µM |
| COc1cc2c(cc1O)[C@H](C)C(c1ccc(OC)c(OC)c1)O2 (stereo not given in full) | 15.4 µM |

System: DU-145 prostate
Experiment: inhibition of tumour cell growth, NCI panel, 48 h

| Compound | TGI |
| --- | --- |
| COc1ccc(C2c3cc4c(cc3OC3(OC)COC(=O)C23)OCO4)c(OC)c1 (stereo not given) | > 100 µM |
| CC1=C/C(=N\NC(N)=S)C(C(O)(C(F)(F)F)C(F)(F)F)C(C)(C)C1 (stereo not given) | > 10 µM |

System: EKVX NSCLC
Experiment: inhibition of tumour cell growth, NCI panel, 48 h

| Compound | TGI |
| --- | --- |
| O=S1C(=c2ccc(=C3Sc4ccccc4S3)cc2)Sc2ccccc21 (stereo not given) | 34.2 µM |
| N#CC(C(=O)CCC(=O)Nc1ccc(Cl)c(Cl)c1)c1ccccc1 (stereo not given) | > 100 µM |
| O=c1c2cccnc2ncn1CCN1CCCCC1 | > 100 µM |
| COc1ccc(C2c3cc4c(cc3OC3(OC)COC(=O)C23)OCO4)c(OC)c1 (stereo not given) | > 73.1 µM |
| COc1cc2c(cc1O)[C@H](C)C(c1ccc(OC)c(OC)c1)O2 (stereo not given in full) | > 100 µM |
| CC1=C/C(=N\NC(N)=S)C(C(O)(C(F)(F)F)C(F)(F)F)C(C)(C)C1 (stereo not given) | > 10 µM |

System: HCC-2998 colon
Experiment: inhibition of tumour cell growth, NCI panel, 48 h

| Compound | TGI |
| --- | --- |
| O=S1C(=c2ccc(=C3Sc4ccccc4S3)cc2)Sc2ccccc21 (stereo not given) | 30.3 µM |
| N#CC(C(=O)CCC(=O)Nc1ccc(Cl)c(Cl)c1)c1ccccc1 (stereo not given) | > 100 µM |
| O=c1c2cccnc2ncn1CCN1CCCCC1 | > 100 µM |
| COc1ccc(C2c3cc4c(cc3OC3(OC)COC(=O)C23)OCO4)c(OC)c1 (stereo not given) | > 100 µM |
| COc1cc2c(cc1O)[C@H](C)C(c1ccc(OC)c(OC)c1)O2 (stereo not given in full) | > 100 µM |
| CC1=C/C(=N\NC(N)=S)C(C(O)(C(F)(F)F)C(F)(F)F)C(C)(C)C1 (stereo not given) | > 10 µM |

System: HCT-116 colon
Experiment: inhibition of tumour cell growth, NCI panel, 48 h

| Compound | TGI |
| --- | --- |
| O=S1C(=c2ccc(=C3Sc4ccccc4S3)cc2)Sc2ccccc21 (stereo not given) | > 56.6 µM |
| N#CC(C(=O)CCC(=O)Nc1ccc(Cl)c(Cl)c1)c1ccccc1 (stereo not given) | > 100 µM |
| O=c1c2cccnc2ncn1CCN1CCCCC1 | > 100 µM |
| O=C(Nc1c(O)[nH]c(=S)[nH]c1=O)c1ccccc1 | > 100 µM |
| COc1ccc(C2c3cc4c(cc3OC3(OC)COC(=O)C23)OCO4)c(OC)c1 (stereo not given) | > 90.7 µM |
| COc1cc2c(cc1O)[C@H](C)C(c1ccc(OC)c(OC)c1)O2 (stereo not given in full) | 15.1 µM |
| CC1=C/C(=N\NC(N)=S)C(C(O)(C(F)(F)F)C(F)(F)F)C(C)(C)C1 (stereo not given) | > 10 µM |

System: HCT-15 colon
Experiment: inhibition of tumour cell growth, NCI panel, 48 h

| Compound | TGI |
| --- | --- |
| O=S1C(=c2ccc(=C3Sc4ccccc4S3)cc2)Sc2ccccc21 (stereo not given) | 28.9 µM |
| N#CC(C(=O)CCC(=O)Nc1ccc(Cl)c(Cl)c1)c1ccccc1 (stereo not given) | > 100 µM |
| O=C(Nc1c(O)[nH]c(=S)[nH]c1=O)c1ccccc1 | > 100 µM |
| COc1ccc(C2c3cc4c(cc3OC3(OC)COC(=O)C23)OCO4)c(OC)c1 (stereo not given) | > 100 µM |
| COc1cc2c(cc1O)[C@H](C)C(c1ccc(OC)c(OC)c1)O2 (stereo not given in full) | 13.3 µM |
| CC1=C/C(=N\NC(N)=S)C(C(O)(C(F)(F)F)C(F)(F)F)C(C)(C)C1 (stereo not given) | > 10 µM |

System: HL-60(TB) leukemia
Experiment: inhibition of tumour cell growth, NCI panel, 48 h

| Compound | TGI |
| --- | --- |
| O=S1C(=c2ccc(=C3Sc4ccccc4S3)cc2)Sc2ccccc21 (stereo not given) | > 100 µM |
| N#CC(C(=O)CCC(=O)Nc1ccc(Cl)c(Cl)c1)c1ccccc1 (stereo not given) | > 100 µM |
| O=C(Nc1c(O)[nH]c(=S)[nH]c1=O)c1ccccc1 | > 100 µM |
| COc1ccc(C2c3cc4c(cc3OC3(OC)COC(=O)C23)OCO4)c(OC)c1 (stereo not given) | 9.31 µM |
| COc1cc2c(cc1O)[C@H](C)C(c1ccc(OC)c(OC)c1)O2 (stereo not given in full) | 13.7 µM |
| CC1=C/C(=N\NC(N)=S)C(C(O)(C(F)(F)F)C(F)(F)F)C(C)(C)C1 (stereo not given) | > 10 µM |
